In patent US20200399238A1, “THERAPEUTIC AURONES” (MIDDLE TENNESSEE STATE UNIVERSITY, priority 2016, published 2020):
Where “and” joins values, the source holds several entries; their conditions need not be identical. Equal values may be shown once. Read-outs that look alike come from different tables or passages of the source.

Columns and labels:
[1] = tested on: rat skeletal muscle cell line, L6; experiment: cells; format: cell-based; details: Rattus norvegicus
Procedure: Cells were maintained in high glucose DMEM obtained from HyClone Laboratories (Logan, Utah) and supplemented with FCS and P/S at the same concentrations used for parasite culture. Cells were passaged every 3-4 days and maintained in a 37° C. humidified incubator in an atmosphere of 5% CO2. For assays. cells were detached, counted using a hemocytometer, and adjusted using fresh media to deliver 5×10^3 cells per well (90 μL) in black walled, flat clear bottom 96-well microtiter plates. After 3 h incubation for attachment, compounds diluted in culture medium were added (10 μL) to triplicate wells. Positive controls (cells treated with podophyllotoxin (Sigma, St. Louis, Mo.)), negative controls (untreated cells), solvent controls (DMSO) and media blanks were included on each plate. Following incubation for 71.5 h, 11 μL of PrestoBlue was added into each well.

[2] = tested on: Leishmania amazonensis promastigotes expressing beta-lactamase; experiment: microbe, parasite or virus in culture; format: cell-based; details: Leishmania amazonensis
Procedure: Leishmania amazonensis promastigotes expressing beta-lactamase (Buckner et al., Am. J. Trop. Med. Hyg. 72 (2005) 600-605. doi:72/5/600 [pii]) were cultured in RPMI supplemented with 10% fetal calf serum and 1% pen-strep-glut solution (Sigma) at 27° C. Stationary phase promastigotes were adjusted in fresh media, treated with compounds, and incubated at 37° C. At 24 hours, 100 uL of cultures was added to 50 uL of the CellTiter Glo® solution. Luminescence readings were taken with a spectrophotometer and used to calculate inhibition.

[3] = tested on: Trypanosoma cruzi Tulahuen cells expressing beta-galactosidase; experiment: T. cruzi intracellular assay (beta-galactosidase, L6 host cells); details: for IC50: Trypanosoma cruzi, TULAHUEN
Procedure: Trypanosoma cruzi Tulahuen cells expressing beta-galactosidase (Buckner et al., Antimicrob. Agents Chemother. 40 (1996) 2592-2597) were cultured using the L6 cell line as a host cell. Adherent L6 cultures were infected with freshly burst T. cruzi trypomastigotes. Approximately 4-6 days later freshly burst trypomastigotes were collected and used to maintain cultures For assays, trypomastigotes were centrifuged to a loose pellet and incubated for 3 hours to allow the trypomastigote forms to swim out of the pellet. Cells were adjusted for addition to intracellular or extracellular assays. […] For intracellular assays, cells were added to adherent L6 cells using an infection ratio of 1:1 and immediately treated with compounds. At 96 hours incubations, a solution containing chlorophenol-red-B-D-beta-galactopyranosidase (Sigma) and a lysis agent were added. After an additional 2 hour incubation, a spectrophotometer was used to quantify the resulting color change (or lack thereof) which was used to calculate inhibition.
The percentage of cell inhibition was calculated using the formula: Percent Inhibition=1−((Treated Sample value−Medium only value)/(Untreated value−Medium only value))×100. Results are expressed as the mean of two or more independent trials.

[4] = tested on: Trypanosoma brucei brucei 427 cells; experiment: T. brucei culture and assay (PrestoBlue); format: cell-based; details: for IC50: Trypanosoma brucei
[5] = Table 1, read-out: IC50 Toxicity (L6)
[6] = read-out: IC50 T. cruzi, Table 1, intracellular assay, mean of 2(+) trials (^c one trial)
[7] = read-out: IC50 T. cruzi, Table 2, intracellular assay, mean of 2(+) independent trials
[8] = Table 1, mean of 2(+) independent trials, read-out: IC50 T. brucei
[9] = Table 3B, weighted means of two or more independent trials, read-out: IC50 L6
[10] = read-out: IC50 TC-I, Table 3B, weighted means of two or more independent trials
[11] = Table 3B, estimated from highest L6 dose tested where no L6 IC50

Row | SMILES | IC50 [1, 5] [µM] | IC50 ([2]; read-out: IC50 L. amaz.) [µM] | IC50 [3, 6] [µM] | IC50 [3, 7] [µM] | IC50 [4, 8] [µM] | also measured
1 | CC(=O)N1/C(=C\c2ccccc2O)C(=O)c2ccccc21 [AA3A] | > 200 | < 1 | > 50 | > 50 | > 50 | –
2 | CC(=O)N1/C(=C\c2ccc[nH]2)C(=O)c2ccccc21 [AA5A] | 39.8 | < 1 | 33.5 | 33.5 | 26.3 | –
3 | O=C1/C(=C/c2ccc[nH]2)Nc2ccccc21 [AA5] | 39.7 | – | 27.8 | – | 49.3 | –
4 | O=C1/C(=C/c2ccccc2)Nc2ccccc21 [AA8] | > 100 | < 1 | 16.8 | 16.8 | 11.7 | –
5 | O=C1/C(=C/c2cccs2)Nc2ccccc21 [AA9] | > 200 | < 1 | > 50 | > 50 | > 50 | –
6 | O=C1/C(=C/c2ccccc2Cl)Nc2ccccc21 [AA11] | > 200 | 1.86 | > 50 | – | > 50 | IC50 ([3]; read-out: IC50 T. cruzi (footnote c: value obtained from one trial), Table 2, one trial): > 50 µM
7 | O=C1/C(=C/c2ccccc2Cl)Oc2ccccc21 [Aurone 3a, (Z)-2-(2-chlorobenzylidene)benzofuran-3(2H)-one] | – | – | – | – | – | selectivity for T. brucei (L6/Tb) [4]: 21.02; IC50 ([4]; read-out: T. brucei IC50 dose): 11.3 µM
8 | O=C1/C(=C/c2ccc(Cl)cc2)Oc2ccccc21 [Aurone 3c, (Z)-2-(4-chlorobenzylidene)benzofuran-3(2H)-one] | – | – | – | – | – | IC50 ([3]; read-out: T. cruzi IC50 dose): < 10 µM
9 | O=C1/C(=C/c2cccc(I)c2)Oc2ccccc21 [Aurone 4b, (Z)-2-(3-iodobenzylidene)benzofuran-3(2H)-one] | – | – | – | – | – | IC50 ([3]; read-out: T. cruzi IC50 dose): < 10 µM; IC50 ([4]; read-out: T. brucei IC50 dose): > 50 µM
10 | O=C1/C(=C/c2cccc(Br)c2)Oc2ccccc21 [Aurone 5b, (Z)-2-(3-bromobenzylidene)benzofuran-3(2H)-one] | – | – | – | – | – | IC50 ([3]; read-out: T. cruzi IC50 dose): < 10 µM; IC50 ([4]; read-out: T. brucei IC50 dose): > 50 µM
11 | O=C1/C(=C/c2ccc(C(F)(F)F)cc2)Oc2ccccc21 [Aurone 6c, (Z)-2-(4-(trifluoromethyl)benzylidene)benzofuran-3(2H)-one] | – | – | – | – | – | IC50 ([3]; read-out: T. cruzi IC50 dose): < 10 µM
12 | N#Cc1ccc(/C=C2\Oc3ccccc3C2=O)cc1 [Aurone 7c] | – | – | – | – | – | selectivity for T. brucei (L6/Tb) [4]: 29.49 and 29.46; IC50 ([4]; read-out: T. brucei IC50 dose): 8.12 µM
13 | O=C1/C(=C/c2cccc([N+](=O)[O-])c2)Oc2ccccc21 [Aurone 12a] | – | – | – | – | – | activity against T. cruzi [3]: modest activity; activity against T. brucei [4]: modest activity
14 | O=C1/C(=C/c2ccc([N+](=O)[O-])cc2)Oc2ccccc21 [Aurone 12b] | – | – | – | – | – | activity against T. cruzi [3]: modest activity; activity against T. brucei [4]: modest activity
15 | COC(=O)c1ccc(/C=C2\Oc3ccccc3C2=O)cc1 [Aurone 13, Methyl (Z)-4-((3-oxobenzofuran-2(3H)-ylidene)methyl)benzoate] | – | – | – | – | – | activity against T. cruzi [3]: no activity; activity against T. brucei [4]: no activity
16 | O=C1/C(=C/c2ccc(Br)cc2)Oc2c1ccc(O)c2O [Aurone 1005, (Z)-2-(4-bromobenzylidene)-6,7-dihydroxybenzofuran-3(2H)-one] | > 100 | 31.1 | > 50 | – | 48 | –

Row | SMILES | IC50 [1, 5] [µM] | IC50 ([2]; read-out: IC50 L. amaz.) [µM] | IC50 [3, 6] [µM] | IC50 [3, 7] [µM] | IC50 [4, 8] [µM] | also measured
17 | COc1ccc(/C=C2\Oc3ccccc3C2=O)c(OC)c1OC [Aurone 2001] | > 100 | 13.3 | > 50 | – | 22.4 | –
18 | COc1cc(/C=C2\Oc3ccccc3C2=O)cc(OC)c1OC [Aurone 2002] | > 100 | 12.6 | > 50 | – | > 50 | –
19 | O=C1/C(=C/c2cccs2)Oc2ccccc21 [Aurone 2004] | > 100 | < 1 | 13.7 | 13.7 | 41.8 | IC50 [1, 9]: > 100 µM; IC50 [3, 10]: 13.7 µM; IC50 ([3]; read-out: T. cruzi IC50 dose): 13.7 µM; activity against T. brucei [4]: moderate activity
20 | O=C1/C(=C/c2ccncc2)Oc2ccccc21 [Aurone 2008] | 81.1 | 26.3 | 16.4 | – | > 50 | IC50 [1, 9]: 81.1 µM; IC50 [3, 10]: 16.4 µM
21 | O=C1/C(=C/c2ccc(Br)cc2)Oc2ccccc21 [Aurone 2009] | > 100 | 10.3 | 11.4 | – | 41.7 | –
22 | O=C1/C(=C/c2ccc([N+](=O)[O-])cc2)Oc2ccccc21 [Aurone 2010] | 249 | 14.5 | 20 | 20 | 40.7 | –
23 | COc1ccc(/C=C2\Oc3ccccc3C2=O)cc1OC [Aurone 2011] | 51.9 | 1.01 | 21.9 | 21.9 | 22.9 | –
24 | O=C1/C(=C/C=C/c2ccccc2)Oc2ccccc21 [Aurone 2013] | 58 | 3.03 | 14.1 | 14.1 | 13.2 | IC50 ([2]; read-out: IC50 L. amaz. (footnote c: value obtained from one trial)): 3.03 µM; IC50 ([3]; read-out: T. cruzi IC50 dose): 14.1 µM; IC50 ([4]; read-out: T. brucei IC50 dose): 13.2 µM
25 | N#Cc1ccc(/C=C2\Oc3ccccc3C2=O)cc1 [Aurone 2014] | 239 | 10.7 | 23.5 | 23.5 | 8.12 | –
26 | O=C1/C(=C/c2cccc([N+](=O)[O-])c2)Oc2ccccc21 [Aurone 2015] | 226 | 1.71 | 22.6 | 22.6 | 29.2 | –
27 | O=C1/C(=C/c2ccc(-c3ccccc3)cc2)Oc2ccccc21 [Aurone 2018] | 298 | 7.22 | 34.4 | 34.4 | > 50 | –
28 | O=C1/C(=C/c2ccc[nH]2)Oc2ccccc21 [Aurone 2021] | 82.7 | < 1 | 14.6 | 14.6 | 38.9 | IC50 [1, 9]: 82.7 µM; IC50 [3, 10]: 14.6 µM
29 | COc1cc(OC)c2c(c1)O/C(=C\c1ccc(C)cc1)C2=O [Aurone 7000] | 142 | – | 7.92 | 7.92 | 23.2 | –
30 | O=C1/C(=C/c2cccc(Br)n2)Oc2ccccc21 [Aurone 9260, (Z)-2-((6-bromopyridin-2-yl)methylene)benzofuran-3(2H)-one] | > 100 | – | 14.6 | – | 43.6 | IC50 [1, 9]: > 100 µM; Selectivity L6/Tc ([3]; Table 1, intracellular T. cruzi IC50): >6.87; Selectivity L6/Tc-I [3, 11]: >6.87; IC50 [3, 10]: 14.6 µM; Selectivity L6/Tb ([4]; Table 1): >2.29; Selectivity L6/Tb [4, 11]: >4.96; IC50 ([4]; read-out: T. brucei IC50 dose): 43.6 µM
31 | O=C1/C(=C/c2cccc(O)c2)Oc2ccccc21 [Sample 9252] | – | – | – | – | – | IC50 ([1]; Table 3A, weighted means of two or more independent trials, read-out: IC50 L6): > 100 µM; IC50 ([3]; read-out: IC50 TC-I, Table 3A, weighted means of two or more independent trials): 16.5 µM
